Laboratory results: PubChem BioAssay (NCI)
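Values below derive from 48-hour exposures of cells grown in 96-well plates, with endpoints linearly interpolated between the two concentrations bracketing the appropriate inhibition level. At the TGI there is no net growth.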

What was measured:
Experiment in all cases: growth of human tumour cells (NCI), 48 h
NCI/ADR-RES ovarian = tested on: NCI/ADR-RES ovarian
U251 CNS = tested on: U251 CNS
SR leukemia = tested on: SR leukemia
SW-620 colon = tested on: SW-620 colon
SNB-75 CNS = tested on: SNB-75 CNS
EKVX NSCLC = tested on: EKVX NSCLC
UACC-62 melanoma = tested on: UACC-62 melanoma
CCRF-CEM leukemia = tested on: CCRF-CEM leukemia
NCI-H522 lung = tested on: NCI-H522 lung
HOP-62 NSCLC = tested on: HOP-62 NSCLC
SF-268 CNS = tested on: SF-268 CNS
SK-OV-3 ovarian = tested on: SK-OV-3 ovarian
SK-MEL-2 melanoma = tested on: SK-MEL-2 melanoma
COLO 205 colon = tested on: COLO 205 colon
UACC-257 melanoma = tested on: UACC-257 melanoma
UO-31 renal = tested on: UO-31 renal
HOP-92 NSCLC = tested on: HOP-92 NSCLC
HCT-116 colon = tested on: HCT-116 colon
T-47D breast = tested on: T-47D breast
RPMI-8226 leukemia = tested on: RPMI-8226 leukemia

Row | SMILES | TGI (NCI/ADR-RES ovarian) [µM] | TGI (U251 CNS) [µM] | TGI (SR leukemia) [µM] | TGI (SW-620 colon) [µM] | TGI (SNB-75 CNS) [µM] | TGI (EKVX NSCLC) [µM] | TGI (UACC-62 melanoma) [µM] | TGI (CCRF-CEM leukemia) [µM] | TGI (NCI-H522 lung) [µM] | TGI (HOP-62 NSCLC) [µM] | TGI (SF-268 CNS) [µM] | TGI (SK-OV-3 ovarian) [µM] | TGI (SK-MEL-2 melanoma) [µM] | TGI (COLO 205 colon) [µM] | TGI (UACC-257 melanoma) [µM] | TGI (UO-31 renal) [µM] | TGI (HOP-92 NSCLC) [µM] | TGI (HCT-116 colon) [µM] | TGI (T-47D breast) [µM] | TGI (RPMI-8226 leukemia) [µM]
1 | CCN1CCN(c2ccc(Nc3ccnc4ccc5c(nnn5C)c34)cc2)CC1 | 36.7 | 19 | 15.8 | 19 | 30.5 | 43.9 | 27.1 | 54.7 | 6.21 | 17.4 | 23.1 | 32.2 | 24.8 | 15.4 | 26.1 | 25.7 | 21.8 | 14.3 | 38.3 | 
2 | COC(=O)c1sc2ncc3c(c2c1N)CCCCCC3 | > 100 | > 100 | > 100 | > 100 | > 100 | > 100 | > 100 | > 100 | > 100 | > 100 | > 100 | > 100 | > 100 | > 100 | > 100 | > 100 | > 100 | > 100 | > 100 | > 100
3 | CC(=O)O[C@H]1C(=O)[C@@]2(C)[C@H]([C@H](OC(=O)c3cccc(C(F)(F)F)c3)[C@]3(O)C[C@H](OC(=O)[C@H](O)[C@@H](NC(=O)c4ccccc4)c4ccccc4)C(C)=C1C3(C)C)[C@]1(OC(C)=O)CO[C@@H]1C[C@@H]2O | > 7.02 | 0.0196 | 3.72 | > 16.4 |  | > 25 | 8 | 0.368 | 0.0175 | > 14.2 | > 25 | > 25 |  | 3.27 | 8.27 | > 15.9 | 15.1 | 3.21 | > 25 | 0.0862
4 | O=C1c2ccccc2C(=O)[C@@]23O[C@@]12C1(Oc2cccc4cccc(c24)O1)[C@@H]1O[C@@H]1[C@@H]3O | 15.7 | > 47.6 | > 100 | > 49.1 | 24 | 54.2 | 27.2 | > 38.7 | 15.6 | 25.7 | 25.4 | 28.6 | 42.1 | 27 | 40.1 | 24.4 | 31.9 | 15.1 | 29.8 | > 23.1
5 | O=C(CC(C(=O)c1ccco1)c1ccsc1)c1ccco1 (stereo unspecified) | > 100 | > 100 | > 100 | > 100 | > 100 | > 100 | > 100 | > 100 | > 100 | > 100 | > 100 | > 100 |  | > 100 | > 100 | > 100 | > 100 | > 100 | > 100 | > 100
6 | CS/C1=C(\c2ccc(C)cc2)N(c2ccccc2)C(=O)C(=O)N(c2ccccc2)/C(c2ccc(C)cc2)=C(/SC)SS1 | > 100 | > 100 | > 100 | > 100 | > 100 | > 100 | > 100 | > 100 | > 100 | > 100 | > 100 |  | > 100 | > 100 | > 100 | > 100 | > 100 | > 100 | > 100 | > 100
7 | COc1c(C)c2c(c(=O)c3c(C)cccc3n2C)c2c1c(=O)c1c(C)cccc1n2C | > 10 | > 10 | > 10 |  | > 10 | > 10 | > 10 | > 10 | > 10 | > 10 | > 10 | > 10 | > 10 | > 10 | > 10 | > 10 | > 10 | > 10 | > 10 | > 10
8 | COc1cc(/C=C2\C[C@H]3[C@@H]4CC=C5C=C(N6CCCC6)CC[C@]5(C)[C@H]4CC[C@]3(C)C2=O)cc(OC)c1OC | > 23.3 | 4.7 | > 100 | > 41.6 | 15.9 | 16.5 | 5.46 | > 100 | 2.88 | 7.17 | 5.05 | 22.1 | 13 | 10.7 | 9.48 | 8.48 | 5.67 | 3.93 | 11.1 | > 28
9 | Oc1cc(-c2ccccc2)cn2c1nc1ccccc12 | 11.8 | > 100 | > 28.5 | > 100 | > 100 | > 100 | 19.5 | > 100 | > 25.1 | > 52.6 | > 100 | 6.09 | > 100 | > 100 | > 100 | > 32.8 | > 100 | > 100 | > 100 | > 100
10 | CCOP(=O)(CCCC(O)CNc1cc(Cl)nc(N)n1)OCC (stereo unspecified) | > 100 | > 100 | > 100 | > 100 | > 100 | > 100 | > 100 | > 100 | > 100 | > 100 | > 100 | > 100 | > 100 | > 100 | > 100 | > 100 | > 100 | > 100 | > 100 | > 100
11 | COc1cc(CNc2ccc3nc4n(c(=O)c3c2)CCCCC4)cc(OC)c1OC | > 100 | > 100 | > 100 | > 100 | > 100 | > 100 | > 100 | > 100 | > 100 | > 100 | > 100 | > 100 | > 100 | > 100 | 75.8 | > 100 | > 100 | > 100 | > 100 | > 100
12 | CN(CCCCN1CCCC1)CCCN(C)C(=O)Cc1ccc(Cl)c(Cl)c1 | > 100 | 32.4 | 15.6 | 42.6 | 47.5 | 37.6 | 16.9 | 20.9 | 27.9 | 34.4 | > 100 | > 100 | 22.5 | 28.9 | 13.5 | 3.72 | 21.3 | 28.3 | 44.2 | 25.9
13 | COc1ccc(/C=C/C(=O)/C=C/c2ccc(OC)cc2)cc1 | > 100 | 68.6 | 68.4 | 52.5 | > 100 | > 100 | > 100 | > 100 | > 100 | > 100 | > 100 | > 100 | > 100 | 95.4 | 41.3 | > 100 | 80.6 | 23.3 | > 100 | 55.9
14 | C=CCN1C(=O)/C(=C/c2ccc(OC)cc2)NC1=S | > 100 | > 100 | > 100 | > 100 | > 100 | 58.7 | > 100 | 13.1 | > 100 | > 100 | > 100 | > 100 | > 100 | > 100 | 78.3 | > 100 | > 100 | > 100 | > 100 | > 100
15 | CC(C)(C)C(=O)C(C(=O)C(C)(C)C)C(=O)C(C)(C)C | > 100 | > 100 | > 100 | > 100 | > 100 | > 100 |  | > 100 | > 100 | > 100 | > 100 | > 100 | > 100 | > 100 | > 100 | > 100 | > 100 | > 100 | > 100 | > 100
16 | Cc1c(C)c2c(c(N)c1C#N)C(=O)N(Nc1ccccc1)C2=O | > 100 | > 100 | > 100 | > 100 | > 100 | > 100 | > 100 | > 100 | > 100 |  | > 100 |  | > 100 | > 100 | > 100 | > 100 | > 100 | > 100 | > 100 | > 100
17 | Cc1nc2sc3ccccc3n2c(=O)c1N=Nc1ccc(Br)cc1 | > 100 | > 100 | > 100 | > 100 | > 100 | > 100 | > 100 | > 100 | > 100 | > 100 | > 100 | > 100 | > 100 | > 100 | > 100 |  | > 100 | > 100 | > 100 | > 100
18 | O=C(O)CN1CCN2CCOCCOCCN(CC1)CCN(CC(=O)O)CC2 | > 100 | > 100 | > 100 | > 100 | > 100 | > 100 | > 100 | > 100 | > 100 | > 100 |  | > 100 | > 100 | > 100 | > 100 | > 100 | > 100 | > 100 | > 100 | > 100
19 | Cc1ccc(NN=NCCCCN)cc1 | > 100 |  | > 100 | > 100 | > 100 | > 100 | > 100 | > 100 | > 100 | > 100 | > 100 | > 100 | > 100 | > 100 | > 100 | > 100 | > 100 | > 100 | > 100 | > 100
20 | CC(OC(C)(C)C)[C@H](NC(=O)OC(C)(C)C)C(=O)O (stereo partly specified) | > 100 | > 100 | > 100 | > 100 |  | > 100 | > 100 | > 100 | > 100 | > 100 | > 100 | > 100 |  | > 100 | > 100 | > 100 | > 100 | > 100 | > 100 | > 100
21 | Cc1ccc(NC(=O)CSc2nc(C)nc3c2sc(=S)n3-c2ccccc2)cc1 | > 10 | > 10 | > 10 | > 10 | 4.84 | > 10 | > 10 | > 10 | > 10 | 5.08 | > 10 | > 10 | > 10 | > 10 | > 10 |  | 9.04 | > 10 | > 10 | > 10
22 | NNC(=O)c1ccccc1NC(=O)/C(=C/c1ccccc1O)NC(=O)c1ccccc1 | 50.8 | > 100 | > 100 | > 100 | 25.9 | > 100 | > 100 | > 100 | 47.4 |  | 28.1 | > 100 |  | > 100 | > 100 | 24.2 | > 100 | > 100 | > 100 | > 100
23 | O=S1CCS(=O)CCS(=O)CC1 (stereo unspecified) | > 100 | > 100 | > 100 | > 100 | > 100 | > 100 | > 100 | > 100 | > 100 | > 100 | > 100 | > 100 |  | > 100 | > 100 | > 100 | > 100 | > 100 | > 100 | 
